According to the supplement of paper PMC10307832:

Assays:
Test in all cases: relative viability (nuclei count vs DMSO), 5 days (fraction); higher = more cells survive
GW-2580 + Trametinib = compound: COC1=CC=C(C=C1)COC2=C(C=C(C=C2)CC3=CN=C(N=C3N)N)OC [GW-2580] + CC(=O)Nc1cccc(-n2c(=O)n(C3CC3)c(=O)c3c(Nc4ccc(I)cc4F)n(C)c(=O)c(C)c32)c1 [Trametinib] (partner 0.02 µM)
Outline: (§1)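 Lung cancer cell lines, seeded in 1536-well plates, were treated the following day by pin tool with a single drug or with five library-drug doses (not always all listed) in √10 steps on top of a fixed anchor-drug dose. Cells were fixed and nuclei stained in one step after 5 days, and nuclei were counted. Relative viability is the nuclei count for treated wells divided by that for vehicle wells, reported as medians of duplicate plates.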

GW-2580 + Alpelisib = compound: COC1=CC=C(C=C1)COC2=C(C=C(C=C2)CC3=CN=C(N=C3N)N)OC [GW-2580] + Cc1nc(NC(=O)N2CCC[C@H]2C(N)=O)sc1-c1ccnc(C(C)(C)C(F)(F)F)c1 [Alpelisib] (partner 2 µM)
Outline: as §1

GW-2580 + Dasatinib = compound: COC1=CC=C(C=C1)COC2=C(C=C(C=C2)CC3=CN=C(N=C3N)N)OC [GW-2580] + Cc1nc(Nc2ncc(C(=O)Nc3c(C)cccc3Cl)s2)cc(N2CCN(CCO)CC2)n1 [Dasatinib] (partner 0.075 µM)
Outline: as §1

Fedratinib + Foretinib = compound: Cc1cnc(Nc2ccc(OCCN3CCCC3)cc2)nc1Nc1cccc(S(=O)(=O)NC(C)(C)C)c1 [Fedratinib] + COc1cc2c(Oc3ccc(NC(=O)C4(C(=O)Nc5ccc(F)cc5)CC4)cc3F)ccnc2cc1OCCCN1CCOCC1 [Foretinib] (partner 0.25 µM)
Outline: as §1

Fedratinib + Phenformin = compound: Cc1cnc(Nc2ccc(OCCN3CCCC3)cc2)nc1Nc1cccc(S(=O)(=O)NC(C)(C)C)c1 [Fedratinib] + N=C(N)NC(=N)NCCc1ccccc1 [Phenformin] (partner 250 µM)
Outline: as §1

| Cell Line | relative viability (GW-2580 + Trametinib; first compound 0.08 µM) | relative viability (GW-2580 + Trametinib; first compound 0.8 µM) | relative viability (GW-2580 + Trametinib; first compound 2.53 µM) | relative viability (GW-2580 + Trametinib; first compound 8 µM) | relative viability (GW-2580 + Alpelisib; first compound 0.08 µM) | relative viability (GW-2580 + Alpelisib; first compound 0.8 µM) | relative viability (GW-2580 + Alpelisib; first compound 2.53 µM) | relative viability (GW-2580 + Alpelisib; first compound 8 µM) | relative viability (GW-2580 + Dasatinib; first compound 0.08 µM) | relative viability (GW-2580 + Dasatinib; first compound 0.8 µM) | relative viability (GW-2580 + Dasatinib; first compound 2.53 µM) | relative viability (GW-2580 + Dasatinib; first compound 8 µM) | relative viability (Fedratinib + Foretinib; first compound 0.1 µM) | relative viability (Fedratinib + Foretinib; first compound 0.3162 µM) | relative viability (Fedratinib + Foretinib; first compound 1 µM) | relative viability (Fedratinib + Phenformin; first compound 0.1 µM) | relative viability (Fedratinib + Phenformin; first compound 0.3162 µM) | relative viability (Fedratinib + Phenformin; first compound 1 µM) |
| --- | --- | --- | --- | --- | --- | --- | --- | --- | --- | --- | --- | --- | --- | --- | --- | --- | --- | --- |
| NCI-H2126 | 0.547 | 0.575 | 0.5 | 0.649 | 0.757 | 0.772 | 0.719 | 0.714 | 0.599 | 0.736 | 0.627 | 0.522 | 1.07 | 1.06 | 1.08 | 0.532 | 0.569 | 0.498 |
| NCI-H2170 | 0.994 | 1.01 | 0.924 | 0.857 | 0.892 | 0.842 | 0.741 | 0.902 | 0.752 | 0.769 | 0.587 | 0.672 | 1.02 | 0.996 | 1.02 | 0.333 | 0.402 | 0.386 |
| NCI-H2228 | 0.483 | 0.51 | 0.364 | 0.511 | 0.91 | 0.886 | 0.627 | 0.775 | 0.557 | 0.551 | 0.441 | 0.488 | 0.847 | 0.825 | 0.743 | 0.226 | 0.252 | 0.358 |
| NCI-H2347 | 0.294 | 0.277 | 0.266 | 0.268 | 1.02 | 0.968 | 0.915 | 1.05 | 0.341 | 0.294 | 0.244 | 0.271 | 0.869 | 0.853 | 0.829 | 0.508 | 0.225 | 0.494 |
| NCI-H2405 | 0.68 | 0.586 | 0.596 | 0.563 | 0.794 | 0.718 | 0.751 | 0.751 | 0.203 | 0.205 | 0.222 | 0.213 | 1.03 | 1.02 | 1.01 | 0.315 | 0.412 | 0.446 |
| NCI-H3122 | 0.305 | 0.264 | 0.18 | 0.234 | 0.85 | 0.878 | 0.671 | 0.758 | 0.947 | 1.01 | 0.655 | 0.812 | 0.956 | 0.9 | 0.941 | 0.292 | 0.407 | 0.339 |
| PC-3 [JPC-3] | 0.7 | 0.674 | 0.685 | 0.745 | 1.05 | 1.09 | 0.998 | 1.01 | 0.986 | 1.14 | 0.845 | 1.03 | 0.982 | 1.08 | 1.06 | 0.508 | 0.466 | 0.482 |
| PC-14 | 0.806 | 0.675 | 0.585 | 0.637 | 0.995 | 1.14 | 0.864 | 0.906 | 0.347 | 0.281 | 0.228 | 0.218 | 0.975 | 1.08 | 1 | 0.427 | 0.676 | 0.386 |
